Laboratory results taken from patent US20100261753A1, “METHODS FOR PREVENTING AND/OR TREATING DEGENERATIVE DISORDERS OF THE CENTRAL NERVOUS SYSTEM” (AMICUS THERAPEUTICS, INC., priority 2009, published 2010).
Where a name gives a salt, the structure may show the parent alone.

What was measured:
[1] = Compound concentration in brain, spleen and plasma samples of the GCase enhancement study; type: in vivo, mice (C57BL/6); details: male, C57BL/6, mouse, po, nine doses, 24-hour washout
Method: (§1) The ability of orally administered test compounds (the hydrochloride salt form of Compound A and Compound B) to elevate GCase levels as compared to reference compound, IFG-tartrate, was assessed in mice. […] Seven animals were used per dose. The dosing solutions were prepared in water. Compounds were administered over 2 weeks as follows: week 1, Mon-Fri (On), Sat-Sun (Off); week 2, Mon-Thu (On); necropsy on Friday. Thus, a total of 9 doses (dosing solutions prepared fresh every day) were given to each mouse, with a 24-hour washout between the last dose and necropsy.
(§2) Plasma was collected by spinning blood at 2700 g for 10 minutes at 4° C. Liver, spleen, lung, and brain tissues were removed, washed in cold PBS, blotted dry, flash frozen on dry ice, and stored at −80° C. until analysis. GCase levels were measured by homogenizing approximately 50 mg tissue in 500 μl McIlvane (MI) buffer (100 mM sodium citrate, 200 mM sodium phosphate dibasic, 0.25% sodium taurocholate, and 0.1% Triton X-100, pH 5.2) at pH 5.2 for 3-5 seconds on ice with a micro homogenizer. Homogenates were then incubated at room temperature without and with 2.5 mM conduritol-B-epoxide (CBE) for 30 min. Finally, 3.7 mM 4-methylumbeliferryl-β-glucoside (4-MUG) substrate was added and incubated at 37° C. for 60 min. Reactions were stopped by addition of 0.4 M glycine, pH 10.6. Fluorescence was measured on a plate reader for 1 sec/well using 355 nm excitation and 460 nm emission. Total protein was determined in lysates using the MicroBCA kit according to the manufacturer's instructions. A 4-methylumbelliferone (4-MU) standard curve ranging from 1.0 nM to 50 μM was run in parallel for conversion of raw fluorescence data to absolute GCase activity (in the presence and absence of CBE) and expressed as nanomoles of 4-MU released per milligram of protein per hour (nmol/mg protein/hr). GCase levels and protein levels were calculated using Microsoft Excel (Redmond, Wash.) and GraphPad Prism version 4.02.

GCase = biological target: T1, GCase (Mus musculus, UniProt P17439); assay: GCase enhancement in tissues of mice after 2-week oral dosing; type: in vivo, mice (C57BL/6); details: for GCase enhancement in brain, spleen, liver and lung: compared to mice administered control or IFG-tartrate; for GCase Increase (-fold): nine doses over 2 weeks
T1 construct: Liver, spleen, lung, and brain tissues were removed; from tissue; host or cells: brain, spleen, liver and lung of wild-type C57BL/6 mice
T1 sequence (P17439 20-515): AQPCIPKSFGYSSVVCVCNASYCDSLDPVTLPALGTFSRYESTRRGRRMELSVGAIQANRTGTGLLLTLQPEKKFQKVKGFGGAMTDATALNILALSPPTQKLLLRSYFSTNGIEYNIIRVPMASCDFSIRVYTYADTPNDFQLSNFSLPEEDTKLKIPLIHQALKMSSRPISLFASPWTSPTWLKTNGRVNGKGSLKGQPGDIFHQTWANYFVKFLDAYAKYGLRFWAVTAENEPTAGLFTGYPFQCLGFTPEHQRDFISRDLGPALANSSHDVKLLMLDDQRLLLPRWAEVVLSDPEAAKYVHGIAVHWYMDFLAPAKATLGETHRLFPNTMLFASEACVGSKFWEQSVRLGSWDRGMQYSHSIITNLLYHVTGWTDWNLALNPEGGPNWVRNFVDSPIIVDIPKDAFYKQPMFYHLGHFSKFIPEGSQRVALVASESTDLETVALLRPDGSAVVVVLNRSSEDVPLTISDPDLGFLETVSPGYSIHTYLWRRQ
Method: as §1, §2

lysosomal GCase = biological target: T2, lysosomal GCase (Homo sapiens, UniProt P04062); assay: In situ lysosomal GCase inhibition and washout assay in fibroblasts from a normal subject; type: cell-based; details: for IC50: normal fibroblasts, 16-24 h incubation, PFBFDβGlu substrate; for In Situ Washout: washout time after treatment at IC90, single exponential fit
T2 construct: lysosomal GCase activity was assayed in situ using fibroblasts established from a normal subject; endogenous in cells; host or cells: fibroblasts established from a normal subject
T2 sequence (P04062 40-536): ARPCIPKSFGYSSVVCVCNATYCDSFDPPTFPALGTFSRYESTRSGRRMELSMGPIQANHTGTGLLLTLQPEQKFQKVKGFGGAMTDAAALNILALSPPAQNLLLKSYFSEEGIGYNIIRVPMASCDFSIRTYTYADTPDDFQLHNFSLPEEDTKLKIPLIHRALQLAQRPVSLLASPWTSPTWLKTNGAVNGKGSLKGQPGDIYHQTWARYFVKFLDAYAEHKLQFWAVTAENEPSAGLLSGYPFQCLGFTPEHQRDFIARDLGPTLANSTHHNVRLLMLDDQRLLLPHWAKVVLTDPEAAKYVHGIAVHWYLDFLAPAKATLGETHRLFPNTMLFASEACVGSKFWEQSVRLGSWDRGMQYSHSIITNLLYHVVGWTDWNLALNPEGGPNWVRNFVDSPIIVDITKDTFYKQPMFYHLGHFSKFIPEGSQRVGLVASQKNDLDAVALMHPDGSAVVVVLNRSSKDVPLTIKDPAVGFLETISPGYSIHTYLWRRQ
Method: For the dose-response assays, cells were incubated with the in situ substrate 5-(pentafluorobenzoylamino)fluorescein di-β-D-glucopyranoside (PFBFDβGlu) for 1 hour and subsequently lysed to determine the extent of substrate hydrolysis in the presence of compound. […] Inhibition was determined as the ratio of activity in the presence of compound to that in the absence of compound. […] Cells were washed extensively and incubated in drug-free medium to allow net compound efflux from cells. Cells were then tested for lysosomal GCase activity at 2 hour intervals over a total period of 8 hours following compound removal. The increase in activity over time was fitted with a single exponential function to determine the compound's washout time.

[2] = brain, 100 mg/kg p.o., Table 4A
[3] = spleen, 10 mg/kg p.o., Table 4B
[4] = spleen, 100 mg/kg p.o., Table 4B

Structure (SMILES) | concentration at 24 h ([1]; brain, 10 mg/kg p.o., Table 3A) [nM] | concentration at 24 h ([1]; brain, 100 mg/kg p.o., Table 3A) [nM] | concentration at 24 h ([1]; plasma, 10 mg/kg p.o., Table 3C) [nM] | concentration at 24 h ([1]; plasma, 100 mg/kg p.o., Table 3C) [nM] | concentration at 24 h ([1]; spleen, 10 mg/kg p.o., Table 3B) [nM] | concentration at 24 h ([1]; spleen, 100 mg/kg p.o., Table 3B) [nM] | GCase enhancement in brain, spleen, liver and lung (GCase) | IC50 (lysosomal GCase) [nM] | In Situ Washout (lysosomal GCase) [h] | concentration at 24 h ([1]; brain, 10 mg/kg p.o., Table 4A) [nM] | concentration at 24 h [1, 2] [nM] | concentration at 24 h ([1]; plasma, 10 mg/kg p.o., Table 4C) [nM] | concentration at 24 h ([1]; plasma, 100 mg/kg p.o., Table 4C) [nM] | concentration at 24 h [1, 3] [nM] | concentration at 24 h [1, 4] [nM] | GCase Increase (-fold) (GCase; brain, 10 mg/kg p.o., Table 4A) | GCase Increase (-fold) (GCase; [2]) | GCase Increase (-fold) (GCase; [3]) | GCase Increase (-fold) (GCase; [4])
O[C@@H]1CNCC(CF)[C@H]1O (stereo in doubt) [Compound A, (3R,4R,5R)-5-(fluoromethyl)piperidine-3,4-diol] | 124 ± 11 | 726 ± 51 | 32 ± 2.4 | 254 ± 73.5 | 69 ± 6 | 304 ± 63 |  |  |  |  |  |  |  |  |  |  |  |  | 
O[C@@H]1CNCC(CF)[C@H]1O (stereo in doubt) [Compound A-HCl, (3R,4R,5R)-5-(fluoromethyl)piperidine-3,4-diol hydrochloride] |  |  |  |  |  |  | statistically significant greater GCase enhancement | 17 ± 8 | 6.6 ± 0.12 |  |  |  |  |  |  |  |  |  | 
O[C@@H]1[C@@H](CCl)CNC[C@H]1O [Compound B, (3R,4R,5S)-5-(chloromethyl)piperidine-3,4-diol] |  |  |  |  |  |  | statistically significant greater GCase enhancement | 121 ± 7 | 2.9 ± 0.22 | 246 ± 42 | 2070 ± 231 | 104 ± 15 | 1530 ± 601 | 645 ± 214 | 2160 ± 464 | 1.3 -fold | 3.5 -fold | 1.4 -fold | 2.2 -fold
